{"source": "patent US20260199529A1", "about": "“EPITHELIAL CELL ADHESION MOLECULE-SPECIFIC PEPTIDE CONJUGATES AND METHODS” (REGENTS OF THE UNIVERSITY OF MICHIGAN, priority 2022, published 2026)", "molecules": {"B1": {"name": "HPD*-IRDye800 (peptide)", "peptide": "HPDMFTRTHSHNGGGSC", "modifications": "also: IRDye800 attached via C-terminal GGGSC linker", "notes": "also called IRDye800-labeled HPD*; EpCAM-specific peptide conjugate"}}, "key": {"[1]": {"test_system": "HCC micrometastases in lung", "assay": "detection of lung micrometastases (immunofluorescence)", "parameters": "species or system mouse", "settings": "lung tissue sections of PDX tumor model mice", "excerpt": "D) Anti-cytokeratin stain confirms presence of human tumor (arrow). […] F) Corresponding histology (H&E) verifies HCC tumor in lung.\nImmunofluorescence images were also collected from lung tissue sections of the PDX tumor model of HCC mice."}, "[2]": {"test_system": "patient-derived xenograft (PDX) tumor model of HCC", "assay": "in vivo whole-body fluorescence imaging, PDX tumor model of HCC", "parameters": "species or system mouse", "settings": "over 24 hours", "experimental": "(§1) A) Images were collected with excitation at λex=800 nm before (pre) and at 0, 0.5, 1.0, 1.25, 1.5, 2, 4 and 24 hours post-injection of HPD*-IRDye800. […] PFH*-IRDye800 was administered for use as control. […] B) The quantified T/B ratio confirms a peak uptake of HPD*-IRDye800 by tumor at 1.5 hours. The adjacent non-tumor tissue region with equal area to the tumor region was used for background.\n(§2) Tumor-bearing mice [a patient-derived xenograft (PDX) tumor model of HCC] were injected intravenously with the HPD*-IRDye800 and control peptides (300 μM in 200 μl PBS). Unlabeled peptide and ICG were administrated as above. The spatial extent and margins of tumors were identified using a NIR whole-body fluorescence imaging system (Pearl®, LI-COR Biosciences) up to 24 h post injection. The images were acquired using λex=800 nm with 85 μm resolution and 16.8×12 cm^2 field of view (FOV). Image Studio software (Li-Cor Biosciences) was used for analysis. Regions of interest (ROI) with area equal to that of the tumor and adjacent in location was measured for background."}, "[3]": {"assay": "in vivo whole-body fluorescence imaging, PDX tumor model of HCC", "parameters": "species or system mouse", "settings": "mouse, in vivo, iv, 300 uM in 200 ul PBS, whole-body imaging up to 24 hours, read-out: time of peak T/B ratio post-injection", "experimental": "as §1, §2"}, "[4]": {"target": "T1, EpCAM (Homo sapiens, UniProt P16422)", "T1 construct": "endogenous in cells; host or cells: Hep3B human HCC cells (A1 also names human SG231 ICC cells)", "T1 sequence (P16422 24-314)": "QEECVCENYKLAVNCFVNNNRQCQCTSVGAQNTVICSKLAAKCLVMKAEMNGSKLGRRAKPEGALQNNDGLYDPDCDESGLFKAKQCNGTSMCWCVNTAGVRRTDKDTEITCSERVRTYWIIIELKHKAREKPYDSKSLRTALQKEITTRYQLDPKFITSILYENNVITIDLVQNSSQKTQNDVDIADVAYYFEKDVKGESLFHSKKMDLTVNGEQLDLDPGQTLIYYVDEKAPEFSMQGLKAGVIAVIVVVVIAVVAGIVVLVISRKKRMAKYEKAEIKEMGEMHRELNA", "assay": "co-localization assay with anti-EpCAM-AF488 on Hep3B cells", "assay_type": "cell-based", "experimental": "(§3) A Pearson's correlation coefficient of p=0.81 was measured from the merged image. […] B) An apparent dissociation constant of kd=43 nM, R^2=0.99 was measured for HPD*-IRDye800 binding to Hep3B cells. The equilibrium dissociation constant kd=1/ka was calculated by performing using a least square fit of the data to the non-linear equation I=(I0+ImaxKa[X])/(I0+Ka[X]). I0 and Imax are the initial and maximum fluorescence intensities, corresponding to no peptide and at saturation, respectively, and [X] represents the concentration of the bound peptide. Results are the mean values from 3 independent experiments. C) Peptide stability in mouse serum was measured by intravenously injecting HPD*-IRDye800 (200 μM in 200 μL of PBS) in mice (n=5). Serum was collected at various time points from 0-24 hours post-injection. The fluorescence intensity I(t) was measured and fit to a first-order kinetics model I(t)=Io+A×exp(−Bt).\nFinally, specific binding of HPD*-IRDye800 to EpCAM was validated using a co-localization assay. Binding by HPD*-IRDye800 and anti-EpCAM-AF488 to the surface (arrows) of Hep3B cells co-localized with a correlation of p=0.81 measured on the merged image, FIG. 3A."}, "[5]": {"target": "T1, EpCAM", "assay": "siRNA knockdown validation of binding (confocal microscopy)", "assay_type": "cell-based", "settings": "for fluorescence intensity / cell surface staining, siEpCAM versus siCL: Hep3B (EpCAM+) cells, siRNA against EpCAM vs control siRNA", "experimental": "(§4) An ANOVA was fit with terms for 3 treatments, 2 siRNA effects, and their interactions using slides in triplicate. […] Fluorescence intensities were measured from 10 cells chosen randomly from 3 slides. * P<0.01 by pairwise comparisons.\nSpecific binding of HPD*-IRDye800 to EpCAM was validated using siRNA knockdown in human SG231 (EpCAM+) ICC cells. Preliminary data were obtained using Hep3B (EpCAM+) human HCC cells. The cells were treated with siRNA against EpCAM (siEpCAM) and control siRNA (siCL)."}, "[6]": {"test_system": "human HCC Hep3B xenograft tumors", "assay": "in vivo NIR fluorescence imaging of orthotopic Hep3B xenograft tumors", "method": "(§5) A total of n=8 animals were studied per group. […] P-values were calculated using a one-way ANOVA model. Background was defined as the adjacent non-tumor region with equal area of the tumor region."}, "[7]": {"test_system": "human HCC specimens", "assay": "immunofluorescence binding to human HCC specimens ex vivo", "experimental": "Binding of HPD*-IRDye800 to human HCC specimens and metastatic lymph nodes ex vivo was examined using immunofluorescence.\nThe merged images show co-localization of peptide and antibody binding to HCC and normal liver, and a Pearson's correlation coefficient of p=0.68 and 0.66, respectively, were calculated. […] Results were compared with histology evaluated by an expert liver pathologist."}, "[8]": {"test_system": "human HCC tumor", "assay": "ex vivo immunofluorescence of resected xenograft liver sections", "parameters": "species or system mouse", "settings": "immunofluorescence on resected liver sections", "excerpt": "After imaging was completed as described in Example 6, the mice were euthanized, and the livers were resected, formalin-fixed, and sectioned to confirm EpCAM expression in human […] tumors. […] The merged image confirms co-localization of peptide and antibody binding to HCC tumor but not to normal mouse liver, FIG. 8D."}, "[9]": {"assay": "in vivo", "settings": "mouse, iv, 150 µM, 200 uL", "method": "as §5"}, "[10]": {"assay": "serum stability (half-life) after intravenous injection in mice", "assay_type": "in vivo", "settings": "40 nmol, mouse serum, 0-24 hours, first-order kinetics fit, read-out: serum half-life T1/2 (converted)", "experimental": "as §3\nThe serum half-life of HPD*-IRDye800 was measured to assess peptide stability. HPD*-IRDye800 was injected intravenously in live mice. Fluorescence intensities were measured time points ranging from 0-24 hours, and fit to a first order kinetic model."}, "[11]": {"assay": "peptide toxicity, animal necropsy histology (H&E)", "assay_type": "in vivo, mouse", "settings": "brain, heart, liver, spleen, lung, kidney, stomach, colon", "experimental": "Mice were sacrificed at […].\nTumor bearing mice were euthanized on day 0 and 15 post-injection of the HPD*-IRDye800 and control peptides. Whole blood (~600 μL) was collected by cardiac puncture and submitted for standard hematology and chemistry. Major organs, including liver, kidney, heart, lung, spleen, stomach, intestine, and brain were resected, processed, and evaluated as routine histology (H&E). A total of 8 mice in each cohort were evaluated."}, "[12]": {"target": "T1, EpCAM", "assay": "competition assay with unlabeled peptide", "assay_type": "cell-based", "settings": "unlabeled competitor added at 0-120 mM", "experimental": "as §4\nSpecific binding of HPD*-IRDye800 to EpCAM was also validated using a competition assay. Unlabeled HPD* was added to compete for binding with IRDye800-labeled HPD* with concentrations ranging from […]."}, "[13]": {"target": "T2, Epithelial cell adhesion molecule (EpCAM) (human, UniProt P16422 24-314)", "T2 construct": "whole, on cells; also called human EpCAM", "T2 sequence (looked up)": "T1 sequence (P16422 24-314)", "assay": "flow cytometry, HPD*-IRDye800 0-200 nM on Hep3B cells; apparent dissociation constant"}}, "note": "Entries after “also recorded” stand apart in the source; their conditions may differ. Where a SMILES comes first, the peptide text is derived from it. Where no end group is shown, it is not given here. The star is where a group is joined. X1 = CC1(C)C(=CC=C2CCCC(C=CC3=[N+](CCCCS(=O)(=O)[O-])c4ccc(S(=O)(=O)O)cc4C3(C)C)=C2Oc2ccc(S(=O)(=O)O)cc2)N(CCCCCC(=O)NCCN2C(=O)CC(*)C2=O)c2ccc(S(=O)(=O)O)cc21"}
{"molecule": "CSCC[C@H](NC(=O)[C@H](CC(=O)O)NC(=O)[C@@H]1CCCN1C(=O)[C@@H](N)Cc1c[nH]cn1)C(=O)N[C@@H](Cc1ccccc1)C(=O)N[C@H](C(=O)N[C@@H](CCCNC(=N)N)C(=O)N[C@H](C(=O)N[C@@H](Cc1c[nH]cn1)C(=O)N[C@@H](CO)C(=O)N[C@@H](Cc1c[nH]cn1)C(=O)N[C@@H](CC(N)=O)C(=O)NCC(=O)NCC(=O)NCC(=O)N[C@@H](CO)C(=O)N[C@@H](CSC1CC(=O)N(CCNC(=O)CCCCCN2C(=CC=C3CCCC(C=CC4=[N+](CCCCS(=O)(=O)[O-])c5ccc(S(=O)(=O)O)cc5C4(C)C)=C3Oc3ccc(S(=O)(=O)O)cc3)C(C)(C)c3cc(S(=O)(=O)O)ccc32)C1=O)C(N)=O)[C@@H](C)O)[C@@H](C)O", "note": "(some centres unmarked) [HPD*-IRDye800] (H-HPDMFTRTHSHNGGGSC(X1)-NH2; N-terminus and C-terminus assumed)", "values": [{"measurement": "detection of / binding to HCC micrometastases in lung", "setting": "[1]", "value": "detected very small tumor volumes in the form of micrometastases; also recorded: strong binding"}, {"measurement": "tumor uptake / T/B ratio in whole-body images", "setting": "[2]", "value": "greater uptake"}, {"measurement": "tissue to tissue ratio", "setting": "[3]", "value": 1.5}, {"measurement": "binding to the surface of Hep3B human HCC cells", "setting": "[4]; confocal microscopy", "value": "bind intensely"}, {"measurement": "Pearson's correlation coefficient, co-localization with anti-EpCAM-AF488", "setting": "[4]; merged image, Hep3B cells", "value": 0.81}, {"measurement": "fluorescence intensity / cell surface staining, siEpCAM versus siCL", "setting": "[5]", "value": "Decreased cell surface staining; also recorded: reduced intensity"}, {"measurement": "binding to the surface of siCL (control) Hep3B cells", "setting": "[5]; confocal microscopy, control siRNA Hep3B cells", "value": "strong binding"}, {"measurement": "time to near complete clearance / signal back to baseline", "setting": "[6]; Hep3B xenograft tumors, post-injection", "value": "~ 48 hours"}, {"measurement": "NIR fluorescence intensity of tumor versus PFH*-IRDye800", "setting": "[6]; […] post-injection, Hep3B xenograft", "value": "significantly greater"}, {"measurement": "mean tumor intensity, fold greater than PFH*-IRDye800", "setting": "[6]; […] post-injection, tail vein, Hep3B xenograft", "value": "> 3.2", "unit": "fold"}, {"measurement": "fold increase in mean fluorescence intensity, HCC versus normal human liver", "setting": "[7]; HCC n=36, normal n=12", "value": 2.6, "unit": "fold"}, {"measurement": "Pearson's correlation coefficient, co-localization with anti-EpCAM-AF488", "setting": "[7]; human HCC sections", "value": 0.68}, {"measurement": "AUC of ROC curve, HCC versus normal", "setting": "[7]; human specimens ex vivo", "value": 0.81}, {"measurement": "sensitivity to distinguish HCC from normal (ROC)", "setting": "[7]; human specimens ex vivo", "value": 85, "unit": "%"}, {"measurement": "specificity to distinguish HCC from normal (ROC)", "setting": "[7]; human specimens ex vivo", "value": 66, "unit": "%"}, {"measurement": "mean fluorescence intensity, binding to HCC versus normal human liver", "setting": "[7]; immunofluorescence", "value": "significantly greater"}, {"measurement": "staining of the surface of human HCC cells", "setting": "[7]; immunofluorescence, human specimens", "value": "Intense staining; also recorded: strong staining"}, {"measurement": "Pearson's correlation coefficient, co-localization with anti-EpCAM-AF488", "setting": "[7]; normal human liver sections", "value": 0.66}, {"measurement": "staining of HCC tumor cell surface (but not normal mouse liver)", "setting": "[8]", "value": "strong staining; also recorded: Bright fluorescence"}, {"measurement": "tissue to tissue ratio", "setting": "[9]", "value": 1.5}, {"measurement": "half-life", "setting": "[10]", "value": 2.6, "unit": "h"}, {"measurement": "acute toxicity on histology (H&E) of vital organs", "setting": "[11]", "value": "No signs of acute toxicity"}]}
{"molecule": "CC1(C)C(/C=C/C=C/C=C/C=C2\\N(CCCCS(=O)(=O)[O-])c3ccc4ccccc4c3C2(C)C)=[N+](CCCCS(=O)(=O)[O-])c2ccc3ccccc3c21.[Na+]", "note": "[ICG, reference compound]", "values": [{"measurement": "tumor uptake / T/B ratio in whole-body images", "setting": "[2]", "value": "non-specific uptake"}, {"measurement": "time of peak uptake / peak T/B ratio post-injection", "setting": "[6]; Hep3B xenograft tumors, imaged 0-48 hours", "value": "over 48 hours"}]}
{"molecule": "HPDMFTRTHSHN [HPD*, Optimized EpCAM-specific peptide, unlabeled]", "values": [{"measurement": "tumor uptake / T/B ratio in whole-body images", "setting": "[2]", "value": "reduced values"}, {"measurement": "fluorescence intensity / cell surface staining, siEpCAM versus siCL", "setting": "[5]", "value": "significantly greater signal for siCL versus siEpCAM"}, {"measurement": "mean fluorescence intensity from HPD*-IRDye800 with competition from unlabeled peptide", "setting": "[12]", "value": "Decreased intensity; also recorded: decreased significantly"}]}
{"molecule": "PFHDMHSNHTRT [PFH*, Unlabeled scrambled peptide (control), reference compound]", "values": [{"measurement": "fluorescence intensity / cell surface staining, siEpCAM versus siCL", "setting": "[5]", "value": "non-significant difference"}]}
{"molecule": "B1", "values": [{"measurement": "Kd", "setting": "[13]", "value": 43, "unit": "nM"}]}
